This is an account of results in PubChem BioAssay (NCI).

Common to all, as to assay: inhibition of tumour cell growth, NCI panel, 48 h
Assay [1] deals with A498 renal.
For assay [2], the system named is HCC-2998 colon.
Assay [3] concerns MCF7 breast.
Assay [4] has as its system NCI-H460 lung.
Assay [5] relates to NCI-H522 lung.
Assay [6] deals with RPMI-8226 leukemia.
Assay [7] has as its system SK-MEL-28 melanoma.
In assay [8] the test system is SK-MEL-5 melanoma.
Assay [9] concerns SNB-75 CNS.
The test system of assay [10] is SW-620 colon.

“And” between values parts separate entries of the source, which are not always exact repeats. Identical values can stand only once.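 These data come from cells grown in 96-well plates and exposed to compound for 48 hours at five concentrations. Here, GI50 denotes the concentration required for 50% inhibition of growth. TGI marks complete inhibition of growth.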 Bounds are passed on as bounds.

For `CC(=O)O[C@]1(C(C)=O)CC[C@H]2[C@@H]3C=C(C)C4=CC(=O)CC[C@]4(C)[C@H]3CC[C@@]21C`, the GI50 was more than 75.7 µM in [1]; more than 100 µM in assay [2]; more than 100 µM in [3]; 98.5 µM in [4]; 53.2 µM in [5]; 2.78 µM in [6]. The GI50 in assay [7] is more than 100 µM; in [8] it was 56.3 µM; in assay [9], more than 59.8 µM; in assay [10] it was more than 100 µM. Also, the TGI in assay [1], in assay [2], in assay [3], in assay [4], in assay [5] and in assay [6] was more than 100 µM each time. The TGI in assay [7], in [8], in assay [9] and in assay [10] was more than 100 µM each time.
Consider `Cn1ccnc1C(=O)/C=C/c1ccccc1`, for which the GI50 is 5.05 µM in assay [1]; 2.36 µM in [2]; 1.27 µM in assay [3]; 3.2 µM in assay [4]; 3.38 µM in assay [5]; 2.91 µM in assay [6]. The GI50 in [7] is 2.61 µM; in [8], 2.92 µM; in assay [9] it was 2.55 µM; in assay [10], 3.58 µM. Moreover, the TGI came to 17 µM in assay [1]; 5.38 µM in assay [2]; 6.77 µM in [3]; 11.4 µM in assay [4]; 14.9 µM in [5]; 8.97 µM in assay [6]. Besides, the TGI in [7] amounted to 5.97 µM; in [8], 12.5 µM; in assay [9], 6.54 µM; in [10], 12.4 µM.
With `CN(CC(=O)N(Cc1ccc(C2CCCCC2)cc1)c1ccc(C(=O)O)c(O)c1)S(=O)(=O)c1c(F)c(F)c(F)c(F)c1F`, the GI50 in [1] is 13.2 µM; in [2], 2.37 µM; in assay [3] it was 3.56 µM; in assay [4], 16.4 µM; in assay [5] it was 2.74 µM; in assay [6], 2.28 µM. For the same compound, the GI50 in assay [7] was 1.86 µM; in assay [8], 14 µM; in [9] it was 6.07 µM; in assay [10], 1.71 µM. The TGI stood at 26.1 µM in assay [1]; 5.72 µM in assay [2]; 15.1 µM in assay [3]; 36.5 µM in [4]; 8.51 µM in assay [5]; 6.37 µM in [6]. Besides, the TGI was 3.89 µM in [7], 27.3 µM in assay [8], 16.7 µM in assay [9] and 3.23 µM in assay [10].
Consider `CCCCCCCCCc1cccc(N2C(N)=NC(N)=NC2(C)C)c1`, for which the TGI in [1] was 16.7 µM; in [3], more than 100 µM; in assay [4], more than 100 µM; in assay [6] it was more than 100 µM; in assay [7] it was 3.44 µM; in [9], 25.9 µM. In assay [10], this compound had a TGI of 1.63 µM.
For the compound `CCCCCCCCCCCC1CCCC(C)N1` (stereo not drawn), the GI50 in [1] is 16.2 µM; in assay [2] it was 2.05 µM; in assay [3], 3.24 µM; in assay [4], 3.67 µM; in assay [5], 7.29 µM; in [6] it was 1.66 µM. The GI50 was 13.6 µM in assay [7], 8.15 µM in assay [8], 9.82 µM in assay [9] and 2.71 µM in [10]. The TGI was 31.9 µM and 154 µM in assay [1]; 12.5 µM and 118 µM in [4]; 19.9 µM and 96.4 µM in assay [5]; 28.2 µM and 152 µM in assay [7]; 21.4 µM and 93.7 µM in [8]; 24 µM and 151 µM in [9].
As to `O=C(O)c1cccc(N=Nc2c(S(=O)(=O)O)ccc3c2C(=O)c2ccccc2C3=O)c1O`, the TGI in [1], in assay [3], in [4], in assay [5], in [6] and in [7] was more than 100 µM throughout. The TGI in assay [8], in assay [9] and in assay [10] was more than 100 µM throughout.
For the compound `C[C@@H](CO)[C@@H]1CCC=C2CC[C@]3(C)[C@H](CC[C@@H]4[C@@]5(C)CCCNC(C)(C)[C@@H]5CC[C@]43C)[C@H]21`, the GI50 in [1] was 5.41 µM; in [2], 1.62 µM; in [3], 1.49 µM; in [4] it was 1.81 µM; in [5], 1.85 µM; in assay [7] it was 1.72 µM. Moreover, the GI50 in assay [8] is 1.77 µM; in assay [9] it was 2.19 µM; in assay [10], 1.86 µM. The TGI in assay [1] was 23 µM; in assay [2], 3.11 µM; in [3], 3.02 µM; in [4], 3.39 µM; in assay [5], 3.86 µM; in assay [7], 3.45 µM. Besides, the TGI in assay [8] came out at 3.18 µM; in assay [9] it was 17.2 µM; in assay [10] it was 3.62 µM.
As for `O=C(Nc1ccccc1)NS(=O)(=O)c1ccc(-n2nc3c(c2-c2ccc(Cl)cc2)Cc2ccccc2-3)cc1`, the GI50 in [1] was 21.8 µM; in [3], 11.2 µM; in assay [4], 22.3 µM; in [5] it was 19 µM; in assay [6], 16.5 µM; in assay [7], 33.7 µM. Besides, the GI50 in [8] is 22 µM; in [9], 48.7 µM; in [10], 23 µM. For the same compound, the TGI in assay [1] is 66.8 µM; in [3], 28.2 µM; in assay [4] it was 85.1 µM; in [5], 67.4 µM; in [6], 48.9 µM; in assay [7], more than 100 µM. Moreover, the TGI is 69.8 µM in assay [8], more than 100 µM in [9] and 55.4 µM in [10].
